Where no end group is shown, it is not given here. The star is where a group is joined. Myristoyl = CCCCCCCCCCCCCC(=O)*
What was measured:
S. aureus biofilms = experiment: Antibiofilm activity, crystal violet staining and colony counting; format: cell-based, Staphylococcus aureus; conditions: different concentrations, 37°C, 24 h, crystal violet OD 595 nm and viable count
Method: E. coli (ATCC 25922) and S. aureus (ATCC 25923) were cultured overnight in MHB medium at 37°C. The bacterial suspension was diluted to 100 times and added to a 12-well plate (500 μL/well). Each peptide with a different concentration was added to the corresponding well plate and incubated at 37°C for 24 h. After incubation, 100 μL of culture supernatant was discarded. The biofilm was fixed with 100 μL of 100% methanol for 15 min, then air-dried, then dyed with 0.1% crystal violet (CV) for 30 mins, and washed with distilled water three times. After adding 200 μL of 95% ethanol, the inhibition rate of the biofilm was calculated by measuring the OD value at 595 nm with Infinite M200 PRO, Switzerland. After ultrasonic treatment, the biofilm was fully dispersed into single cells, and the cell suspension was diluted to a suitable concentration for colony counting. All experiments were repeated three times.
The formation of bacterial biofilms in the wounds of DFU patients is the main cause of bacterial resistance. By measuring the antibiofilm ability, the inhibitory and clearing effects of drugs on biofilms can be assessed. In the case of preventing biofilm formation, E. coli and S. aureus were cultured in LB nutrient medium with different concentrations of the novel AMP MYR-DM-ANG1-7 in 24-well plates at 37°C and incubate for 24 h. […]

HUVECs [1] = experiment: Mitochondrial membrane potential, JC-1; format: cell-based, human; conditions: HG + LPS, 20 μg/mL, p < 0.0001
Method: JC-1 is a widely used and ideal fluorescent probe for detecting MMP. When the MMP is high, JC-1 accumulates in the matrix of the mitochondria, forming J-aggregates that emit red fluorescence. When the MMP is low, JC-1 cannot accumulate in the mitochondrial matrix, remaining as a monomer that emits green fluorescence. HUVECs were cultured in well plates containing DMEM at a density of 1 × 10^6 cells/well. Following the indicated treatments, the slides were washed three times with PBS and the cells were incubated with 1 mg/l JC-1 at 37°C for 30 min in the incubator, washed briefly three times with PBS. The fluorescence was measured over the entire field of vision using a fluorescent microscope connected to an inverted fluorescence microscope (ThermoFish EVOS, United States). The experiment was repeated three times.

[2] = test system: PI3K/AKT/eNOS signaling pathway, MasR in HUVECs; experiment: Western blot of PI3K/AKT/eNOS signaling pathway and MasR; format: cell-based, human
Method: After the specified treatments, HUVECs were harvested using a cell scraper and lysed in cell lysis buffer (Wuhan Boster Biological Engineering Co., Ltd.) for 30 min at 4°C. Total protein was quantified using a BCA protein assay kit. Lysate (20 μg) from each sample was separated by 10% sodium dodecyl sulfate–polyacrylamide gel electrophoresis (SDS-PAGE) and then transferred to a polyvinylidene fluoride (PVDF) membrane. The membrane was blocked with a fresh blocking buffer containing 5% skim milk in Tris-buffered saline with 0.1% Tween 20 (TBS-T) for 2 h at room temperature and then incubated with primary antibodies against AKT (1:1000 dilution, #4691, Cell Signaling Technology), p-AKT (1:2000 dilution, #4060, Cell Signaling Technology), PI3K (1:1000 dilution, ab191606, Abcam), p-PI3K (1:1000 dilution, ab278545, Abcam), eNOS (1:1000 dilution, #32027, Cell Signaling Technology), p-eNOS (1:1000 dilution, ab215717, Abcam), and Mas (1:1000 dilution, #85003-1-RR, Proteintech) overnight at 4°C with shaking. The membrane was washed with TBS-T for 15 min and then incubated with horseradish peroxidase (HRP)–conjugated goat anti-rabbit secondary antibody (Wuhan Sanying Biotechnology Co., Ltd.) at a 1:2000 dilution in TBS-T and 3% skim milk for 90 min at room temperature. The membrane was washed three times with TBS-T, each for 15 min, and the immune reaction signals were detected using an ECL detection method. Protein bands were detected using a chemiluminescent gel imaging system (Bio-Rad Lab, China). Protein expression was quantitatively analyzed using ImageJ software (National Institutes of Health, Bethesda, MD, United States), and the experiment was repeated three times.

HUVECs [3] = experiment: Transwell migration assay; format: cell-based, human; conditions: HUVECs in HG + LPS; p < 0.01
Method: HUVECs (1 × 10^4 cells/well) were incubated in the upper chamber of an 8-μm pore size (Corning, New York) and placed into a 24-well plate for 16 h at 37°C with 5% CO2. Cells adhering to the top surface of the Transwell membrane were carefully removed using a cotton swab. Cells that had migrated to the bottom of the chamber were fixed with 4% paraformaldehyde for 30 min and stained with 0.1% CV for 20 min. Finally, the chambers were placed on slides and imaged using an inverted fluorescence microscope (ThermoFish EVOS, United States). The number of cells in five random fields of each chamber was counted to determine migration ability.

[4] = TEM of self-assembled structures; format: physicochemical; conditions: 32 μg/mL, deionized water, 1.5% PTA negative stain
Method: The self-assembly morphology of peptide amphiphiles in water was observed using TEM. Each sample was mounted on a 300-mesh copper-coated carbon grid and then negatively stained with a 1.5% phosphotungstic acid solution (1.5% PTA). Before imaging, all samples were air-dried for approximately 10 min. Finally, the samples were characterized under an acceleration voltage of 80 kV.

HUVECs [5] = experiment: Scratch wound healing assay; format: cell-based, human; conditions: HG + LPS, 20 μg/mL, n = 3
Method: In a 6-well plate, HUVECs (2 × 10^5 cells/well) were seeded. The cells were starved in serum-free medium for 12 h, and then, a scratch was made vertically using a 200-μL pipette tip. […]

In the case of “Myristoyl-SSRRKPCKGWLCKLKLRGGYTLIGSATNLNRPTYVRAGGGDRVYIHP (cysteines drawn unpaired) [MYR-DM-ANG1-7]”, the “formation of S. aureus biofilms” value (S. aureus biofilms) is reported as “effectively inhibit”, the “mitochondrial membrane potential (JC-1)” value (HUVECs [1]) is reported as “increase” and the “expression of membrane receptor MasR” value ([2]; after HG treatment and drug treatment) is reported as “significantly increased”. The “phosphorylation level of eNOS” value ([2]; pretreatment then HG + LPS) was “increased”, the “phosphorylation level of AKT (p-AKT/total AKT)” value ([2]; pretreatment then HG + LPS (HG + LPS 0.4-fold), n = 3) was 0.94 fold and the “phosphorylation level of PI3K (p-PI3K/total PI3K)” value ([2]; pretreatment then HG + LPS (HG + LPS 0.8-fold), n = 3) was 1.28 fold. The “number of cells passing through the chamber (Transwell)” value (HUVECs [3]) was “increased”, the “particle size of micelles” value [4] was 22.38 ± 1.63 nm and the “wound healing rate (scratch assay)” value (HUVECs [5]; after 12 h) was 61.6%. The “healing area (scratch assay)” value (HUVECs [5]; at 48 h) was 100%.
